Molecules are shown by their SMILES. Some results are limits rather than exact numbers.

The target in this assay is recombinant full-length human hydroxyacid oxidase 1 (HAO1), the equivalent of hGOX (Homo sapiens (Human), UniProt Q9UJM8). Briefly: In-vitro human glycolate oxidase (hGOX) assay (Amplex red/HRP fluorescence). Format: biochemical. The conditions noted are these: 12.5 nM HAO1, 85 μM glycolate, 2.5% DMSO; read-out: IC50.
Sequence of recombinant full-length human hydroxyacid oxidase 1 (HAO1), the equivalent of hGOX (Q9UJM8 whole entry): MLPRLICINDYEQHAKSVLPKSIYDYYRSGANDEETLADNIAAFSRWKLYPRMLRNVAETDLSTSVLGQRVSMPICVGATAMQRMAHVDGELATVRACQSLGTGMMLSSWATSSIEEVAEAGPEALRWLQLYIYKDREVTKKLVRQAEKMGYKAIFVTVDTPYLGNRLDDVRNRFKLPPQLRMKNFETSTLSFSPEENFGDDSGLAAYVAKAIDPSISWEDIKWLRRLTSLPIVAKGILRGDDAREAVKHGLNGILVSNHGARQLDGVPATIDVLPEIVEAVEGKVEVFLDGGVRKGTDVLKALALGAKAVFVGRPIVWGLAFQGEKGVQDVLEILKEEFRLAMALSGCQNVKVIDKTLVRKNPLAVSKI
Experimental: Biological Activity Assay: In-Vitro Human Glycolate Oxidase (hGOX) Assay
The in-vitro glycolate oxidase assay was performed using recombinant full-length human hydroxyacid oxidase 1 (HAO1), the equivalent of hGOX. […] Purified HAO1 was dissolved in assay buffer consisting of 10 mM NaCl, 110 mM KCl, 2 mM MgCl2, 50 mM HEPES (pH 7.4) and 0.01% Triton™ X-100.
As a reminder, the IC50 is the concentration that gives 50% inhibition. For `C#Cc1ccc(Oc2[nH]nnc2C(=O)O)cc1` [Example I-297, 5-(4-Ethynylphenoxy)-1H-1,2,3-triazole-4-carboxylic acid], the IC50 amounted to 4 nM.

In the case of `O=C(O)c1[nH]nnc1Oc1ccc(F)c(F)c1` [Example I-307, 5-(3,4-Difluorophenoxy)-1H-1,2,3-triazole-4-carboxylic acid], the IC50 came to 88 nM.

`O=C(O)c1nn[nH]c1Sc1ccccc1F` [Example I-013, 5-((2-Fluorophenyl)thio)-1H-1,2,3-triazole-4-carboxylic acid]: the IC50 was found to be 200 nM.

On to `Cc1ccc(Oc2[nH]nnc2C(=O)O)cc1C` [Example I-039, 5-(3,4-Dimethylphenoxy)-1H-1,2,3-triazole-4-carboxylic acid], for which the IC50 was 56 nM.

`Cc1ccc(Sc2[nH]nnc2C(=O)O)cc1` [Example I-003, 5-(p-Tolylthio)-1H-1,2,3-triazole-4-carboxylic acid]: the IC50 was 160 nM.

In the case of `COc1cc(OC)cc(-c2cccc(Oc3[nH]nnc3C(=O)O)c2)c1` [Example I-303, 5-((3′,5′-Dimethoxy-[1,1′-biphenyl]-3-yl)oxy)-1H-1,2,3-triazole-4-carboxylic acid], the IC50 worked out at 169 nM.

Regarding `CCc1cccc(Oc2[nH]nnc2C(=O)O)c1` [Example I-295, 5-(3-Ethylphenoxy)-1H-1,2,3-triazole-4-carboxylic acid], the IC50 was 79 nM.

As for `O=C(O)c1nn[nH]c1Oc1cccc(N2CCCCCC2)c1` [Example I-280, 5-(3-(Azepan-1-yl)phenoxy)-1H-1,2,3-triazole-4-carboxylic acid], the concentration for half-maximal inhibition (IC50) turned out to be 222 nM.

For `O=C(O)c1nn[nH]c1Sc1ccc(C(F)(F)F)cc1` [Example I-016, 5-((4-(Trifluoromethyl)phenyl)thio)-1H-1,2,3-triazole-4-carboxylic acid], the half-inhibitory concentration (IC50) was determined as 820 nM.

As for `CCOC(=O)c1nn[nH]c1Sc1ccccc1F` [Example I-014, Ethyl 5-((2-fluorophenyl)thio)-1H-1,2,3-triazole-4-carboxylate], the half-inhibitory concentration (IC50) came out at 430000 nM.

Consider `O=C(O)c1[nH]nnc1Sc1ccc(Cl)c(Cl)c1` [Example I-025, 5-((3,4-Dichlorophenyl)thio)-1H-1,2,3-triazole-4-carboxylic acid], for which the IC50 was found to be 43 nM.

With `CCOC(=O)c1nn[nH]c1Nc1ccc(OC)cc1` [Example I-289, Ethyl 5-((4-methoxyphenyl)amino)-1H-1,2,3-triazole-4-carboxylate], the concentration for half-maximal inhibition (IC50) is over 500000 nM.

Consider `O=C(O)c1nn[nH]c1Oc1cccc(N2CCCCC2)c1` [Example I-281, 5-(3-(Piperidin-1-yl)phenoxy)-1H-1,2,3-triazole-4-carboxylic acid], for which the IC50 is 370 nM.

Consider `CC(C)Cc1cccc(Oc2[nH]nnc2C(=O)O)c1` [Example I-296, 5-(3-Isobutylphenoxy)-1H-1,2,3-triazole-4-carboxylic acid], for which the half-maximal inhibitory concentration (IC50) was 76 nM.

Turning to `CC(C)c1cccc(Oc2[nH]nnc2C(=O)O)c1` [Example I-278, 5-(3-Isopropylphenoxy)-1H-1,2,3-triazole-4-carboxylic acid], the 50% inhibitory concentration (IC50) came out at 230 nM.

Take `COc1ccc(Oc2[nH]nnc2C(=O)O)cc1` [Example I-035, 5-(4-Methoxyphenoxy)-1H-1,2,3-triazole-4-carboxylic acid]: the IC50 was found to be 260 nM.

Turning to `CCOC(=O)c1nn[nH]c1Sc1ccc(Br)cc1` [Example I-008, Ethyl 5-((4-bromophenyl)thio)-1H-1,2,3-triazole-4-carboxylate], the IC50 was over 500000 nM.

As for `COc1cc(OC)cc(-c2ccc(Oc3[nH]nnc3C(=O)O)cc2)c1` [Example I-301, 5-((3′,5′-Dimethoxy-[1,1′-biphenyl]-4-yl)oxy)-1H-1,2,3-triazole-4-carboxylic acid], the IC50 is 1080 nM.

As to `O=C(O)c1nn[nH]c1Sc1nc2ccccc2s1` [Example I-032, 5-(Benzo[d]thiazol-2-ylthio)-1H-1,2,3-triazole-4-carboxylic acid], the IC50 is 4860 nM.

Take `O=C(O)c1nn[nH]c1Oc1ccc(Cl)c(F)c1` [Example I-308, 5-(4-Chloro-3-fluorophenoxy)-1H-1,2,3-triazole-4-carboxylic acid]: the half-maximal inhibitory concentration (IC50) is 34 nM.

Take `O=C(O)c1nn[nH]c1Oc1cccc(-c2ccc3c(c2)OCO3)c1` [Example I-305, 5-(3-(Benzo[d][1,3]dioxol-5-yl)phenoxy)-1H-1,2,3-triazole-4-carboxylic acid]: the half-maximal inhibitory concentration (IC50) was 2 nM.

With `O=C(O)c1nn[nH]c1OCc1ccc(Br)cc1` [Example I-085, 5-((4-Bromobenzyl)oxy)-1H-1,2,3-triazole-4-carboxylic acid], the 50% inhibitory concentration (IC50) was over 10000 nM.

Consider `C=Cc1cccc(Oc2[nH]nnc2C(=O)O)c1` [Example I-284, 5-(3-Vinylphenoxy)-1H-1,2,3-triazole-4-carboxylic acid], for which the concentration for half-maximal inhibition (IC50) was 89 nM.

`CCOC(=O)c1nn[nH]c1Sc1ccc(OC)cc1` [Example I-005, Ethyl 5-((4-Methoxyphenyl)thio)-1H-1,2,3-triazole-4-carboxylate]: the half-inhibitory concentration (IC50) was over 500000 nM.

Turning to `Cc1ccc(Nc2[nH]nnc2C(=O)O)cc1` [Example I-292, 5-(p-Tolylamino)-1H-1,2,3-triazole-4-carboxylic acid], the IC50 was determined as 3760 nM.

`O=C(O)c1nn[nH]c1Oc1cccc(N2CCCC2)c1` [Example I-283, 5-(3-(Pyrrolidin-1-yl)phenoxy)-1H-1,2,3-triazole-4-carboxylic acid]: the IC50 worked out at 172 nM.

For `CCOC(=O)c1nn[nH]c1Nc1ccc(C)cc1` [Example I-291, ethyl 5-(p-tolylamino)-1H-1,2,3-triazole-4-carboxylate], the IC50 is over 500000 nM.

For `O=C(O)c1nn[nH]c1Oc1cccc(N2CCOCC2)c1` [Example I-282, 5-(3-Morpholinophenoxy)-1H-1,2,3-triazole-4-carboxylic acid], the 50% inhibitory concentration (IC50) turned out to be 539 nM.

Regarding `Cc1ccccc1Sc1[nH]nnc1C(=O)O` [Example I-010, 5-(o-Tolylthio)-1H-1,2,3-triazole-4-carboxylic acid], the half-maximal inhibitory concentration (IC50) was found to be 360 nM.

With `O=C(O)c1nn[nH]c1Sc1ccc(Br)cc1` [Example I-007, 5-((4-Bromophenyl)thio)-1H-1,2,3-triazole-4-carboxylic acid], the IC50 stood at 70 nM.

For `O=C(O)c1nn[nH]c1Oc1ccccc1` [Example I-057, 5-Phenoxy-1H-1,2,3-triazole-4-carboxylic acid], the 50% inhibitory concentration (IC50) worked out at 360 nM.

With `COc1ccc(Sc2[nH]nnc2C(=O)O)cc1` [Example I-004, 5-((4-Methoxyphenyl)thio)-1H-1,2,3-triazole-4-carboxylic acid], the IC50 was determined as 140 nM.

As to `Cc1cc(Oc2[nH]nnc2C(=O)O)ccc1F` [Example I-306, 5-(4-Fluoro-3-methylphenoxy)-1H-1,2,3-triazole-4-carboxylic acid], the concentration for half-maximal inhibition (IC50) is 61 nM.

Regarding `COc1ccc(Nc2[nH]nnc2C(=O)O)cc1` [Example I-290, 5-((4-Methoxyphenyl)amino)-1H-1,2,3-triazole-4-carboxylic acid], the IC50 came out at 6530 nM.

Regarding `Cc1ccc(Sc2[nH]nnc2C(=O)O)c(C)c1` [Example I-009, 5-((2,4-Dimethylphenyl)thio)-1H-1,2,3-triazole-4-carboxylic acid], the IC50 was determined as 230 nM.

Consider `O=C(O)c1nn[nH]c1Oc1ccc(-c2cc(Cl)cc(Cl)c2)cc1` [Example I-300, 5-((3′,5′-Dichloro-[1,1′-biphenyl]-4-yl)oxy)-1H-1,2,3-triazole-4-carboxylic acid], for which the IC50 was found to be 33 nM.

As to `O=C(O)c1nn[nH]c1Oc1ccc(F)c(Cl)c1` [Example I-309, 5-(3-Chloro-4-fluorophenoxy)-1H-1,2,3-triazole-4-carboxylic acid], the concentration for half-maximal inhibition (IC50) worked out at 27 nM.

Take `O=C(O)c1nn[nH]c1Oc1cccc(C2CC2)c1` [Example I-293, 5-(3-Cyclopropylphenoxy)-1H-1,2,3-triazole-4-carboxylic acid]: the IC50 worked out at 74 nM.

As for `CCc1ccc(Oc2[nH]nnc2C(=O)O)cc1` [Example I-298, 5-(4-Ethylphenoxy)-1H-1,2,3-triazole-4-carboxylic acid], the 50% inhibitory concentration (IC50) was found to be 34 nM.

With `O=C(O)c1nn[nH]c1Oc1cccc(-c2ccc(OC(F)(F)F)c(F)c2)c1` [Example I-311, 5-((3′-Fluoro-4′-(trifluoromethoxy)-[1,1′-biphenyl]-3-yl)oxy)-1H-1,2,3-triazole-4-carboxylic acid], the half-maximal inhibitory concentration (IC50) stood at 27 nM.

`CCOC(=O)c1nn[nH]c1Sc1ccccc1Cl` [Example I-012, Ethyl 5-((2-chlorophenyl)thio)-1H-1,2,3-triazole-4-carboxylate]: the IC50 is 251000 nM.

On to `O=C(O)c1nn[nH]c1Sc1ccccc1Cl` [Example I-011, 5-((2-Chlorophenyl)thio)-1H-1,2,3-triazole-4-carboxylic acid], for which the IC50 is 270 nM.

Consider `O=C(O)c1nn[nH]c1Oc1ccc(-c2ccc(OC(F)(F)F)c(F)c2)cc1` [Example I-310, 5-((3′-Fluoro-4′-(trifluoromethoxy)-[1,1′-biphenyl]-4-yl)oxy)-1H-1,2,3-triazole-4-carboxylic acid], for which the IC50 was 5 nM.

Turning to `COc1ccccc1Sc1[nH]nnc1C(=O)O` [Example I-006, 5-((2-Methoxyphenyl)thio)-1H-1,2,3-triazole-4-carboxylic acid], the half-inhibitory concentration (IC50) was found to be 2310 nM.

In the case of `O=C(O)c1nn[nH]c1Sc1cccc(F)c1` [Example I-015, 5-((3-Fluorophenyl)thio)-1H-1,2,3-triazole-4-carboxylic acid], the IC50 is 130 nM.

Regarding `CC(C)c1ccc(Oc2[nH]nnc2C(=O)O)cc1` [Example I-274, 5-(4-Isopropylphenoxy)-1H-1,2,3-triazole-4-carboxylic acid], the 50% inhibitory concentration (IC50) was 112 nM.

Source of the values: patent publication US11389456B2, “Compounds and methods for treating oxalate-related diseases” (OxaluRx, Inc., priority 2018, dated 2022).
